{
  "source": "patent US10155004B2",
  "about": "“17-hydroxy-17-pentafluoroethyl-estra-4,9(10)-dien-11-aryl derivatives, method of production thereof and use thereof for the treatment of diseases” (BAYER INTELLECTUAL PROPERTY GMBH, priority 2009, dated 2018)",
  "key": {"[1]": {"biological_target": "T1, human progesterone receptor A (Homo sapiens, UniProt P06401)", "T1 construct": "expressed in transfected cells; host or cells: SK-N-MC human neuroblastoma cells, stably transfected", "T1 sequence (P06401 1-769 isoform P06401-2)": "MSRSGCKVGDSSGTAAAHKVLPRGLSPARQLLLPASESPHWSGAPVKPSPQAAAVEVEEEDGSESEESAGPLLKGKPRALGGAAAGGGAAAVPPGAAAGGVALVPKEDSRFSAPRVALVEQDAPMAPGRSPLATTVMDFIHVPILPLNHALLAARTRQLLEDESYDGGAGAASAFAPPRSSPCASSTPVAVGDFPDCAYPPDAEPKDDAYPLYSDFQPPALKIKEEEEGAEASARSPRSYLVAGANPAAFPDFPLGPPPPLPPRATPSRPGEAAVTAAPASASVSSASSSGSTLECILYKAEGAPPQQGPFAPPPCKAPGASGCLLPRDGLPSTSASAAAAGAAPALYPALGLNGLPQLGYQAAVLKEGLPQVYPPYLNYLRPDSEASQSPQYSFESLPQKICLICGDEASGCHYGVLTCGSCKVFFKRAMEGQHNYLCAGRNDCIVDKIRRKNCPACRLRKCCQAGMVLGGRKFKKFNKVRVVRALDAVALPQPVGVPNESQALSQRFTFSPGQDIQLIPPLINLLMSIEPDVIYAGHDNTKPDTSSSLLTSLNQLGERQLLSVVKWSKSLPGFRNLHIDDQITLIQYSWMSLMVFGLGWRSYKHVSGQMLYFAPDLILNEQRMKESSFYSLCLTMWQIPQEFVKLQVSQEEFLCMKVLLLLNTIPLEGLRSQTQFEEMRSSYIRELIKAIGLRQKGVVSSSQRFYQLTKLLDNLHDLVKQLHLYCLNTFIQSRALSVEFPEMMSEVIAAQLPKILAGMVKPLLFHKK", "test": "Progesterone receptor-antagonistic action in stably transfected SK-N-MC cells, MTV-LUC reporter (PR-A)", "assay_type": "cell-based", "details": "antagonistic efficacy vs 0.1 nmol/l promegestone", "protocol": "EXAMPLE 16 PROGESTERONE RECEPTOR-ANTAGONISTIC ACTION IN STABLE TRANSFECTANTS OF HUMAN NEUROBLASTOMA CELLS (SK-N-MC CELLS) WITH THE HUMAN PROGESTERONE A OR PROGESTERONE B RECEPTOR AND AN MTV-LUC REPORTER CONSTRUCT\nSK-N-MC cells (human neuroblastoma cells), which have been stably transfected with plasmids, which express the human progesterone receptor B (pRChPR-B-neo) or the human progesterone receptor A (pRChPR-A-neo) and a reporter construct (pMMTV-LUC), were incubated for 24 hours either in the absence (negative control) or in the presence of increasing amounts of the respective test compound (0.01 nmol/l, 0.1 nmol/l 1 nmol/l, 10 nmol/l, 100 nmol/l and 1 μmol/l), in order to determine the agonistic efficacy. As positive control of reporter gene induction, the cells were treated with the synthetic gestagen promegestone (0.01 nmol/l, 0.1 nmol/l, 1 nmol/l, 10 nmol/l, 100 nmol/l and 1 μmol/l). For determination of the antagonistic activity, the cells were treated with 0.1 nmol/1 promegestone and additionally with increasing amounts of the respective test compound (0.01 nmol/l, 0.1 nmol/l, 1 nmol/l, 10 nmol/l, 100 nmol/l and 1 μmol/l). The activity of the LUC reporter gene (LUC=luciferase) was determined in the cell lysates and was measured as RLU (relative light units). All measured values are given as percentage efficacy and as EC50 or IC50 concentrations.\n11β-(4-Acetylphenyl)-20,20,21,21,21-pentafluoro-17-hydroxy-19-nor-17α-pregna-4,9-dien-3-one and 20,20,21,21,21-pentafluoro-17-hydroxy-11β-[4-(hydroxyacetyl)phenyl]-19-nor-17α-pregna-4,9-dien-3-one, very potent and therefore preferred examples from WO98/34947 and WO2008/058767, were tested as comparative compounds along with the test compound."}, "pregnant rats": {"tested_on": "pregnant rats", "test": "Abortion test on female rats (termination of early pregnancy)", "assay_type": "in vivo, rat", "details": "d5-d7 p.c., autopsy d9 p.c.", "protocol": "EXAMPLE 17 ABORTION TEST ON FEMALE RATS\nThe action of progesterone and of the progesterone receptor is a fundamental precondition for successful pregnancy or gestation in mammals. The progesterone-antagonistic action of the compounds according to the invention was tested on pregnant rats (6 rats per group) on day 5 to 7 post coitum with conventional housing and feeding conditions.\nAfter successful hand mating, the pregnant animals (presence of sperm in the vaginal smear on day 1 of pregnancy=d1 p.c.) were randomized and divided into the treatment group and the control group. The animals then each received subcutaneously or orally 0.15; 0.5; 1.5 or 5 mg/kg of the test compound or 1.0 ml/kg of vehicle (benzyl benzoate/castor oil: 1+4 [v/v]) daily from day 5 to day 7 (d5-d7 p.c.).\nAutopsy was carried out on day 9 (d9 p.c.). As a characteristic of progesterone receptor antagonistic action, the uterus was examined for the presence of nidation sites. Complete absence, or also the presence of pathological, haemorrhagic or otherwise abnormal nidation sites on day 9 (d9 p.c.) was assessed as abortion."}, "[2]": {"test": "Chemical stability against temperature, light and oxidative stress", "assay_type": "physicochemical", "details": "compared with analogue with alkanoyl or hydroxyalkanoyl group"}},
  "data": [
    {"smiles": "C[C@]12C[C@H](c3ccc(S(C)(=O)=O)cc3)C3=C4CCC(=O)C=C4CC[C@H]3[C@@H]1CC[C@@]2(O)C(F)(F)C(F)(F)F", "note": "[Example 4, (11β,17β)-17-Hydroxy-11-[4-(methylsulphonyl)phenyl]-17-(pentafluoroethyl)estra-4,9-dien-3-one]", "values": [
      {"measurement": "Progesterone receptor A (PR-A) Efficacy", "setting": "[1]", "result": 100, "unit": "%"},
      {"measurement": "Abortion rate", "setting": "pregnant rats; daily dose 0.15 mg/kg s.c. or p.o.", "result": 40, "unit": "%"},
      {"measurement": "Abortion rate", "setting": "pregnant rats; daily dose 0.5 mg/kg s.c. or p.o.", "result": 100, "unit": "%"},
      {"measurement": "Abortion rate", "setting": "pregnant rats; daily dose 1.5 mg/kg s.c. or p.o.", "result": 100, "unit": "%"},
      {"measurement": "Abortion rate", "setting": "pregnant rats; daily dose 5.0 mg/kg s.c. or p.o.", "result": 100, "unit": "%"},
      {"measurement": "oxidation sensitivity", "setting": "[2]", "result": "surprisingly low oxidation sensitivity"},
      {"measurement": "stability under the influence of UV light", "setting": "[2]", "result": "surprisingly high stability"},
      {"measurement": "stability under thermal load", "setting": "[2]", "result": "surprisingly high stability under thermal load"}
    ]}
  ]
}
